Laboratory results as given in patent publication US7223770B2, “Tocopherol-modified therapeutic drug compounds” (priority 2003, dated 2007).
Structures can show the parent of a compound that is named as a salt.

What was measured:
[1] = tested on: NCI-H460 (non-small cell lung); conditions: NCI-H460 (NSCLC); value reported by NCI; cited from earlier work
[2] = tested on: HCT-15 (colorectal); conditions: HCT-15 (COLON); value reported by NCI; cited from earlier work
[3] = tested on: OVCAR-3 (ovarian); conditions: value reported by NCI; cited from earlier work
[4] = tested on: HCT-116 (colorectal); conditions: HCT-116 (COLON); value reported by NCI; cited from earlier work
[5] = tested on: HT-29 (colorectal); conditions: HT29 (COLON); value reported by NCI; cited from earlier work
[6] = tested on: MCF-7 (breast); conditions: value reported by NCI; cited from earlier work
[7] = rats, intravenous; literature value; cited from earlier work
[8] = tested on: HT-29 human tumor cells; experiment: HT-29 Human Tumor Xenograft anti-tumor activity; assay type: in vivo, Athymic mice
Procedure: HT-29 Human Tumor Xenograft. Athymic mice were subcutaneously implanted with 30–40 mg tumor fragments using 12-gauge trocar needles. A sufficient number of mice were implanted with fragments so tumors in narrow weight range (100–200 mg) were selected for the trial on staging day (SD). The animals selected with tumors in the proper size range were randomized into six groups of 10 animals and intravenously administered the following test compounds:
The tumor measurements were performed using a caliper (millimeters); the tumor volume was calculated based on the formula: (Length×width^2)/2=Volume (mm^3).

[9] = 15 mg/kg intravenous, q1dx5 (2 weeks)

Structure (SMILES)	GI50 [1]	GI50 [2]	GI50 [3]	GI50 [4]	GI50 [5]	GI50 [6]	Clearance [7]	t1/2 (elimination) [7]	Number of animals with no measurable tumor on Day 55 [8, 9]	Tumor Growth Delay (T − C) [8, 9]	Tumor Growth Inhibition (% T/C) ([8]; 15 mg/kg intravenous, q1dx5 (2 weeks), at Day 55)	Median tumor size ([8]; q1dx5, fifty-five days after dose initiation)	MRT [7]
CC[C@@]1(O)C(=O)OCc2c1cc1n(c2=O)Cc2cc3ccccc3nc2-1 [Camptothecin]	16 nM	160 nM	160 nM	40 nM	126 nM	13 nM	147 mL/min/kg	1.7 h	–	–	–	–	–
CC[C@@]1(O)C(=O)OCc2c1cc1n(c2=O)Cc2cc3cc(O)ccc3nc2-1 [Example 10-HO-CPT, 10-hydroxycamptothecin]	11 nM	356 nM	62 nM	27 nM	112 nM	10 nM	–	–	–	–	–	–	–
CCc1c2c(nc3ccc(OC(=O)N4CCC(N5CCCCC5)CC4)cc13)-c1cc3c(c(=O)n1C2)COC(=O)[C@]3(O)CC [Irinotecan, irinotecan hydrochloride]	5010 nM	–	–	7900 nM	12600 nM	3980 nM	–	–	0/10	14 days	52 % T/C	1637 mm^3	1.43 h
